Patent publication US20220241240A1, “AGENTS AND METHODS FOR INCREASING STEM CELL FUNCTION” (priority 2019, published 2022)

Experiments:
[1] = tested on: cord blood derived human HSPCs; assay: Colony Forming Unit (CFU) assay in methylcellulose; format: cell-based; details: hHSPCs cultured 7 days with 50 μM UroA; colonies counted 15 days post plating; versus control
Method: Next, we cultured cord blood derived human HSPCs without or with UroA (50 μM) and performed two functional assays: Colony Forming Unit (CFU) assay—7 days post culture and in vivo transplantation assay in new born NSG-SGM3 pups—5 days post culture (FIG. 2B). […] Cryopreserved CD34+ cells isolated from foetal liver/cord blood were thawed and cultured in vitro in StemSpan (Stem cell tech) media supplemented with hSCF (100 ng/ml), hFLT3L (100 ng/ml), hTPO (50 ng/ml), hLDLP (10 μg/ml) and different concentrations of UroA (dissolved in DMSO) were added; an equal amount of DMSO was added to the control well. For longer culture periods half of the media was replenished every 2nd or 3rd day. CFU assays were carried out using H4434 (Stem cell tech) as per the manufacturer's instructions. 1000 cells from each well were plated in duplicate. Colonies were counted 15 days post plating using Stem Vision (Stem cell tech).

[2] = tested on: human cord blood derived hematopoietic stem and progenitor cells (hHSPCs); assay: Mitochondrial membrane potential (TMRM) in cultured hHSPCs (CD34+), flow cytometry; format: cell-based; details: days 3, 5 and 7, increasing doses of UroA
Source text: We then looked at the effect of UroA on human cord blood derived hematopoietic stem and progenitor cells (hHSPCs) (FIG. 1B). Cryopreserved hHSPCs (CD34+) were thawed and cultured in basal media (Stemspan+SCF+FLT3L+TPO+LDLP+Penicillin/Streptomycin) supplemented with different concentrations of UroA. Aliquots of cells were harvested at days 3, 5 and 7, followed by staining for CD34 and TMRM, and analysed by flow cytometry.
Cryopreserved CD34+ cells isolated from foetal liver/cord blood were thawed and cultured in vitro in StemSpan (Stem cell tech) media supplemented with hSCF (100 ng/ml), hFLT3L (100 ng/ml), hTPO (50 ng/ml), hLDLP (10 μg/ml) and different concentrations of UroA (dissolved in DMSO) were added; an equal amount of DMSO was added to the control well. For longer culture periods half of the media was replenished every 2nd or 3rd day.
Human HSCs already in culture were incubated at 37° C. for 1 hour with 200 nM TMRM (Invitrogen). Cells were then washed with FACS buffer, followed by staining with CD34 antibody for 1 hour at 4° C. Cells were washed with FACS buffer and analysed by flow cytometry on a BD LSR II.

mHSCs [3] = assay: In vivo reconstitution by UroA-cultured mHSCs in lethally irradiated recipient mice; parameters: species or system mouse; details: mHSCs cultured 3 days with 20 μM UroA, injected into lethally irradiated mice
Method: Having previously shown that lowering mitochondrial membrane potential enhances HSC function (Vannini, N. et al. (2016) Nat Commun 7: 13125), we asked if UroA treatment improves in vivo reconstitution potential of HSCs. To that end, we cultured freshly isolated mHSCs in basal media without or with UroA (20 μM). At the end of the culture period (3 days) cells were counted and injected into lethally irradiated recipient mice (FIG. 2A).
(§1) Murine HSCs were sorted into 1.5 ml Eppendorf tubes and were cultured in Stemline II (SIGMA) supplemented with 100 ng/ml SCF (R&D) and 2 ng/ml Flt3 (R&D). Different concentrations as indicated of UroA (dissolved in DMSO) were added; an equal amount of DMSO was added to the control well.
C57131/6 Ly5.2 mice were lethally irradiated with a total 8 Gy dose in a gamma radiator 24 h before transplant. Mice were injected with 200 donor cells post culture derived from C57131/6 Ly5.1 mice and 200,000 competitor cells derived from C57131/6 Ly5.1/5.2 mice, via tail-vein injection. Peripheral blood was collected every few weeks to determine the percentage of chimerism by FACS analysis.

[4] = tested on: cord blood derived human HSPCs; assay: In vivo transplantation assay of UroA-cultured hHSPCs in new born NSG-SGM3 pups; details: hHSPCs cultured 5 days with 50 μM UroA
Method: Next, we cultured cord blood derived human HSPCs without or with UroA (50 μM) and performed two functional assays: Colony Forming Unit (CFU) assay—7 days post culture and in vivo transplantation assay in new born NSG-SGM3 pups—5 days post culture (FIG. 2B). […] Cryopreserved CD34+ cells isolated from foetal liver/cord blood were thawed and cultured in vitro in StemSpan (Stem cell tech) media supplemented with hSCF (100 ng/ml), hFLT3L (100 ng/ml), hTPO (50 ng/ml), hLDLP (10 μg/ml) and different concentrations of UroA (dissolved in DMSO) were added; an equal amount of DMSO was added to the control well. For longer culture periods half of the media was replenished every 2nd or 3rd day. NSG mice were purchased from Jackson Laboratory, bred and maintained under pathogen-free conditions in-house. For transplantation, one day old NSG pups were irradiated with 1 Gy (RS-2000, RAD SOURCE) and a few hours later injected intrahepatically with in vitro expanded HSCs. Each pup was injected with a cell mass derived from an initial 50,000 CD34+ cells post in vitro culture. Mice were bled at 12 weeks to estimate human reconstitution levels (% human CD45+ cells) in the peripheral blood. Antibody combinations were used to further estimate human B cells, T cells, monocytes, neutrophils and NK cells.

[5] = tested on: Human Cord-blood derived HSCPs; assay: Limiting transplantation experiment: survival of irradiated adult NSG mice given UroA-cultured HSPCs; format: in vivo; details: HSPCs cultured three days with 50 μM UroA, 40,000 cells per irradiated adult NSG mouse; followed eight months; especially early post-transplant phases
Method: A) Human cord blood derived HSPCs were cultured in basal media with or without 50 μM UroA. Three days post culture cells were counted and limiting dose (40,000 cells) was injected in each irradiated recipient adult NSG mouse and survival was monitored over several months.
In order to check if a short in vitro treatment with UroA could improve the survival of irradiated recipients post transplantation we designed a limiting transplantation experiment. Human Cord-blood derived HSCPs were cultured for three days in the absence or presence of UroA. Post culture cells were counted and 40,000 cells were injected in each recipient mouse (irradiated NSG adult mice). We followed these mice for several months to check for post transplantation survival.

[6] = tested on: bone marrow derived mouse HSCs (mHSCs); assay: Mitochondrial membrane potential (TMRM) and mitochondrial mass (Mitotracker) in cultured mHSCs, flow cytometry; format: cell-based
Method: We first tested the effect of UroA on bone marrow derived mouse HSCs (mHSCs) (FIG. 1A). Freshly isolated mHSCs (LKS CD150+CD48-) were cultured in basal media (Stemline+SCF+FLT3L+Penicillin/Streptomycin) supplemented with different concentrations of UroA. Cells were harvested at day 3 and stained with tetramethylrhodamine methyl ester (TMRM; to measure mitochondria membrane potential) and Mitotracker (to measure mitochondrial mass), and analysed by flow cytometry.
Flow cytometry analysis was performed on freshly isolated bone marrow (BM) from C571316 mice. BM was extracted from crushed femora and tibia. Cell suspension was filtered through a 70 μm cell strainer and erythroid cells were eliminated by incubation with red blood cell lysis buffer (eBioscences). Isolation and stains were performed in ice-cold PBS 1 mM EDTA. Lineage positive cells were then removed with a magnetic lineage depletion kit (BD biosciences). Cell suspensions were then stained with specific antibodies for the stem cell compartment and sorted by FACS (BD FACS Aria 111) into 1.5 ml Eppendorf tubes.
as §1
Mouse HSCs already in culture were incubated at 37° C. for 1 hour with 200 nM tetramethylrhodamine methyl ester (TMRM; Invitrogen) and 100 nM Mitotracker green. Cells were then washed with FACS buffer and analysed by flow cytometry on a BD LSR II.

mHSCs [7] = assay: QPCR gene expression analysis on cultured mHSCs; format: cell-based, mouse; details: mHSCs cultured with 20 μM UroA versus without
Method: To have analyse the molecular mechanisms by which UroA enhances HSC function, we performed gene expression analysis on mHSCs cultured in basal media with or without UroA (20 μM).
RNA was extracted from HSCs post culture using ZR RNA MicroPrep (Zymo Research) and RNA extraction was performed accordingly to the manufacturer's instructions. RNA was retrotranscribed to cDNA with 1st strand cDNA kit (TAKARA) as per the manufacturer's instructions.
For qPCR, 0.5 μl of cDNA, 5 μl of Power Syber Green mastermix (Applied Biosystem) and 500 nM of primers were used to a final volume of 10 μl for each reaction. The reactions were performed on the 7900HT system (Applied Biosystem).

human HSCs = details: culture media supplemented with nicotinamide riboside; cited from earlier work

O=c1oc2cc(O)ccc2c2ccc(O)cc12 [UroA, 3,8-dihydroxyurolithin]
numbers of colonies (CFU assay) [1]: significantly higher numbers of colonies
TMRM signal (Median Fluorescence Intensity, MFI) [2]: concomitant decrease of TMRM signal
proportions of cells in the TMRM low gate [2]: increasing proportions of cells in the TMRM^low gate
reconstitution in myeloid and lymphoid lineages of the blood (mHSCs [3]): This trend was reflected in both the myeloid and lymphoid lineages
blood reconstitution levels of recipients (mHSCs [3]; versus cells cultured without UroA): higher reconstitution levels
human cell numbers in blood cell lineages ([4]; NSG-SGM3 mice, primarily lymphoid lineage (T and B cells)): higher human cell numbers
human engraftment (proportion and absolute numbers) in blood ([4]; transplanted in irradiated NSG-SGM3 pups): increased human engraftment
post transplantation survival of recipient mice [5]: significant improvement in survival
proportion of cells in the TMRM low gate ([6]; mHSCs (LKS CD150+CD48-), day 3 of culture, increasing doses of UroA): step-wise increase
mitochondrial mass (Mitotracker staining) ([6]; mHSCs, day 3, 20 μM UroA): significant reduction
mitochondrial mass (Mitotracker staining) ([6]; mHSCs, day 3, all concentrations of UroA): decrease in the mitochondrial mass
TMRM fluorescent intensity (Mean Fluorescence Intensity, MFI) ([6]; mHSCs, day 3 of culture, increasing doses of UroA): significant lowering
expression of ROS protection genes (Foxo1, SOD2), fold change (delta delta CT) (mHSCs [7]): increased expression
expression of autophagy genes (ATGS, PARK2), fold change (delta delta CT) (mHSCs [7]): increased expression
expression of glycolysis genes (HK2, Glut1), fold change (delta delta CT) (mHSCs [7]): increased expression

NC(=O)c1ccc[n+]([C@@H]2O[C@H](CO)[C@@H](O)[C@H]2O)c1 [nicotinamide riboside]
levels of engraftment in primary and secondary recipient humanised mice (human HSCs): significantly higher levels of engraftment
